In US8658570B2, “Use of anthranilamide derivatives for controlling insects and spider mites by drenching, soil mixing, furrow treatment, drip application, soil, stem or flower injection, in hydroponic systems, by planting hole treatment or dip application, floating or seedbox application or by treating seed, and …” (Bayer Cropscience AG, priority 2010, dated 2014):

Columns and labels:
Format in all cases: in vivo
Plutella xylostella = Plutella xylostella test on Savoy cabbage; drench application; conditions: soil, 168 h, mortality 7 days after infestation, read-out: % Activity (according to Abbott); for pest or weed control at 0.5 mg/plant: 0.5 mg of ai/plant; for pest or weed control at 1 mg/plant: 1 mg of ai/plant
Procedure: Plutella xylostella test on Savoy Cabbage; Drench Application
(§1) • Solvent: 4 parts by weight of acetone • Emulsifier: 1 part by weight of alkylaryl polyglycol ether
(§2) To produce a suitable preparation of active compound, 1 part by weight of active compound is mixed with the stated amounts of solvent and emulsifier, and the concentrate is diluted with water to the desired concentration. Savoy cabbage (Brassica oleracea) is watered with a solution of the product in question (volume of water: 60 ml/plant). The stated concentration refers to the amount of active compound per plant. After about 1 week, the treated plants are infested with larvae of the diamondback moth (Plutella xylostella). After 1 week, the activity in % is determined. 100% means that all caterpillars have been killed; 0% means that none of the caterpillars have been killed.

Spodoptera frugiperda [1] = test: Spodoptera frugiperda test on maize; drench application (Example B); conditions: soil, 168 h, mortality 7 days after infestation, read-out: % Activity (according to Abbott); for pest or weed control at 0.5 mg/plant: 0.5 mg of ai/plant; for pest or weed control at 1 mg/plant: 1 mg of ai/plant
Procedure: Spodoptera frugiperda Test on Maize; Drench Application
as §1
as §2, with “Maize plants (Zea mays) are” for “Savoy cabbage (Brassica oleracea) is”, “50” for “60”, “with” for “with larvae of”, “armyworm (Spodoptera frugiperda).” for “diamondback moth (Plutella xylostella).”

Heliothis armigera = Heliothis armigera test on cotton; drench application; conditions: Helicoverpa armigera, soil, 168 h, mortality 7 days after infestation, read-out: % Activity (according to Abbott); for pest or weed control at 0.5 mg/plant: 0.5 mg of ai/plant; for pest or weed control at 1 mg/plant: 1 mg of ai/plant
Procedure: Heliothis armigera Test on Cotton; Drench Application
as §1
as §2, with “Cotton plants (Gossypium hirsuium) are” for “Savoy cabbage (Brassica oleracea) is”, “50” for “60”, “cotton bollworm (Heliothis armigera).” for “diamondback moth (Plutella xylostella).”

Diabrotica balteata = Diabrotica balteata test on maize; drench application; conditions: soil, 192 h, mortality 8 days after treatment, mixtures about 95%/5%, read-out: % Activity (according to Abbott)
Procedure: Diabrotica balteata Test on Maize; Drench Application • Solvent: 7 parts by weight of dimethylformamide • Emulsifier: 1 part by weight of alkylaryl polyglycol ether To produce a suitable preparation of active compound, 1 part by weight of active compound is mixed with the stated amounts of solvent and emulsifier, and the concentrate is diluted with water to the desired concentration. Maize plants (Zea mays) are watered with the solution of the product in question and infested with larvae of the banded cucumber beetle (Diabrotica baltenta). After 8 days, the activity in % is determined. 100% means that all caterpillars have been killed; 0% means that none of the caterpillars have been killed.

Myzus persicae = Myzus persicae test on Savoy cabbage; drench application; conditions: soil, 240 h, mortality 10 days after treatment, mixtures about 85%/15% and 84%/15%, read-out: % Activity (according to Abbott)
Procedure: Myzus persicae Test on Savoy Cabbage; Drench Application • Solvent: 7 parts by weight of dimethylformamide • Emulsifier: part by weight of alkylaryl polyglycol ether To produce a suitable preparation of active compound, 1 part by weight of active compound is mixed with the stated amounts of solvent and emulsifier, and the concentrate is diluted with water to the desired concentration. Savoy cabbage (Brassica oleracea) heavily infested by the green peach aphid (Myzus persicae) is watered with a solution of the product of the desired concentration. After 10 days, the activity in % is determined. 100% means that all of the aphids have been killed: 0% means that none of the aphids have been killed.

Spodoptera frugiperda [2] = test: Spodoptera frugiperda test on maize; drench application (Example B-1); conditions: soil, 336 h, mortality 14 days after treatment, read-out: % Activity (according to Abbott)
Procedure: Spodoptera fugiperda Test on Maize; […] Application • Solvent: 7 parts by weight of dimethylformamide • Emulsifier: 1 part by weight of alkylaryl polyglycol ether To produce a suitable preparation of active compound, 1 part by weight of active compound is mixed with the stated amounts of solvent and emulsifier, and the concentrate is diluted with water to the desired concentration. Maize plants (Zea mays) are watered with a solution of the product in question and infested with the armyworm (Spadoptera frugiperda). After 14 days, the activity in % is determined. 100% means that all caterpillars have been killed; 0% means that none of the caterpillars have been killed.

Work on `CNC(=O)c1cc(I)cc(C)c1NC(=O)c1cc(Cn2nnc(C(F)(F)F)n2)nn1-c1ncccc1Cl` [(I-1-69)] yielded a pest or weed control at 0.5 mg/plant (Plutella xylostella) of 100%, a pest or weed control at 0.5 mg/plant (Spodoptera frugiperda [1]) of 85% and a pest or weed control at 0.5 mg/plant (Heliothis armigera) of 100%. The inhibition at 20 ppm (Diabrotica balteata) was 100%.

`CCNC(=O)c1cc(C#N)cc(C)c1NC(=O)c1cc(Cn2nnc(C(F)(F)F)n2)nn1-c1ncccc1Cl` [(I-1-3)] showed a pest or weed control at 0.5 mg/plant (Plutella xylostella) of 100%, a pest or weed control at 0.5 mg/plant (Spodoptera frugiperda [1]) of 100% and a pest or weed control at 0.5 mg/plant (Heliothis armigera) of 100%. For the same molecule, the inhibition at 20 ppm (Myzus persicae) was 90%.

For `Cc1cc(C#N)cc(C(=O)NC(C)(C)C)c1NC(=O)c1cc(Cn2nnc(C3CC3)n2)nn1-c1ncccc1Cl` [(I-1-71)], the pest or weed control at 0.5 mg/plant (Plutella xylostella) was 90% and the pest or weed control at 0.5 mg/plant (Spodoptera frugiperda [1]) was 85%.

`CNC(=O)c1cc(Br)cc(C)c1NC(=O)c1cc(Cn2nnc(C(F)(F)F)n2)nn1-c1ncccc1Cl` [(I-1-64)] was tested, and the pest or weed control at 0.5 mg/plant (Plutella xylostella) was 100%, the pest or weed control at 0.5 mg/plant (Spodoptera frugiperda [1]) was 100% and the pest or weed control at 0.5 mg/plant (Heliothis armigera) was 100%.

`CNC(=O)c1cc(C#N)cc(C)c1NC(=O)c1cc(Cn2nnc(C(F)(F)F)n2)nn1-c1c(F)cccc1Cl` [(I-1-66)] showed a pest or weed control at 1 mg/plant (Plutella xylostella) of 90%, a pest or weed control at 1 mg/plant (Spodoptera frugiperda [1]) of 95% and a pest or weed control at 1 mg/plant (Heliothis armigera) of 100%. The inhibition at 20 ppm (Myzus persicae) was 90% and the inhibition at 20 ppm (Diabrotica balteata) was 90%.

Molecule `CNC(=O)c1cc(C#N)cc(C)c1NC(=O)c1cc(Cn2nnc(C(F)(F)F)n2)nn1-c1ncccc1Br` [(I-1-62)] has a pest or weed control at 0.5 mg/plant (Plutella xylostella) of 100%, a pest or weed control at 0.5 mg/plant (Spodoptera frugiperda [1]) of 98% and a pest or weed control at 0.5 mg/plant (Heliothis armigera) of 95%. For the same molecule, the inhibition at 20 ppm (Myzus persicae) was 80% and the inhibition at 20 ppm (Diabrotica balteata) was 100%.

In the case of `Cc1cc(C#N)cc(C(=O)NC(C)(C)C)c1NC(=O)c1cc(Cn2nnc(C(F)(F)F)n2)nn1-c1ncccc1Cl` [(I-1-2)], the inhibition at 20 ppm (Spodoptera frugiperda [2]) is reported as 100%.

For `Cc1cc(C#N)cc(C(=O)NC(C)(C)C)c1NC(=O)c1cc(Cn2nnc(C(F)(F)F)n2)nn1-c1ncccc1Cl` [(I-1-63)], the pest or weed control at 0.5 mg/plant (Plutella xylostella) was 100%, the pest or weed control at 0.5 mg/plant (Spodoptera frugiperda [1]) was 100% and the pest or weed control at 0.5 mg/plant (Heliothis armigera) was 100%.

Molecule `Cc1cc(Br)cc(C(=O)NCC#N)c1NC(=O)c1cc(Cn2nnc(C(F)(F)F)n2)nn1-c1ncccc1Cl` [(I-1-68)] has a pest or weed control at 0.5 mg/plant (Plutella xylostella) of 100%, a pest or weed control at 0.5 mg/plant (Spodoptera frugiperda [1]) of 100% and a pest or weed control at 0.5 mg/plant (Heliothis armigera) of 100%. For the same molecule, the inhibition at 20 ppm (Diabrotica balteata) was 100%.

In the case of `Cc1cc(C#N)cc(C(=O)NC(C)(C)C)c1NC(=O)c1cc(Cn2nnc(C(F)(F)F)n2)nn1-c1ncccc1F` [(I-1-70)], the pest or weed control at 1 mg/plant (Plutella xylostella) is reported as 100%, the pest or weed control at 1 mg/plant (Spodoptera frugiperda [1]) is reported as 90% and the pest or weed control at 1 mg/plant (Heliothis armigera) is reported as 95%.

`Cc1cc(C#N)cc(C(=O)NC(C)C)c1NC(=O)c1cc(Cn2nnc(C(F)(F)F)n2)nn1-c1ncccc1Br` [(I-1-67)] was tested, and the pest or weed control at 1 mg/plant (Plutella xylostella) was 100%, the pest or weed control at 1 mg/plant (Spodoptera frugiperda [1]) was 90% and the pest or weed control at 1 mg/plant (Heliothis armigera) was 100%.

Molecule `Cc1cc(C#N)cc(C(=O)NC(C)(C)C)c1NC(=O)c1cc(Cn2nnc(C(F)(F)F)n2)nn1-c1ncccc1Br` [(I-1-65)] has a pest or weed control at 1 mg/plant (Plutella xylostella) of 100%, a pest or weed control at 1 mg/plant (Spodoptera frugiperda [1]) of 95% and a pest or weed control at 1 mg/plant (Heliothis armigera) of 100%.

Work on `CNC(=O)c1cc(F)cc(C)c1NC(=O)c1cc(Cn2nnc(C(F)(F)F)n2)nn1-c1ncccc1Cl` [(I-1-61)] yielded a pest or weed control at 0.5 mg/plant (Plutella xylostella) of 100%, a pest or weed control at 0.5 mg/plant (Spodoptera frugiperda [1]) of 100% and a pest or weed control at 0.5 mg/plant (Heliothis armigera) of 100%.

`CNC(=O)c1cc(C#N)cc(C)c1NC(=O)c1cc(Cn2nnc(C(F)(F)F)n2)nn1-c1ncccc1Cl` [(I-1-1)] was tested, and the inhibition at 20 ppm (Spodoptera frugiperda [2]) was 100% and the inhibition at 20 ppm (Diabrotica balteata) was 100%.
